Results on one compound are retold here after patent publication US20220163532A1, “NUCLEAR-DERIVED EXOSOMES AND METHODS OF USE THEREOF” (Board of Regents, The University of Texas System, priority 2019, published 2022).

In one assay the test system is ovarian cancer cells. Description: Nuclear proteins in exosomes from drug-treated ovarian cancer cells (Western blot). Particulars: topotecan 10 nM or olaparib 20 μM. In kind it is cell-based, human. The procedure:
Isolation of exosomes. The isolation method for exosomes that was used in this study followed the standard methods of the International Society of Extracellular Vesicles (Witwer et al., 2013). Cell lines described above were grown in the corresponding medium described above until 60 to 70% confluence was achieved. Cells were then washed twice with phosphate-buffered saline (PBS) and grown in corresponding medium containing 1% exosome-free FBS (EXO-FBS-250A-1, System Biosciences) plus 0.1% gentamicin for 48 hours. For exosome isolation, the harvested medium underwent serial centrifugation. First, the medium was spun down at 500g for 10 min to pellet any floating cells. Next, the supernatant was collected and spun down at 2000g for 30 min to pellet any residual cell debris. The resulting supernatant was then filtered through a 0.22-μm filter (SCGPUO5RE and SLGP033RS, Millipore-Sigma) to remove any remaining large vesicles. After filtration, the medium was spun down at 40,000 rpm for 2 hours at 4° C. in an ultracentrifuge (Optima XE, Beckman Coulter) with a Ti 45 fixed-angle rotor (339160, Beckman Coulter). […] Exosome concentration and quantity were determined using NTA with a NanoSight NS300 instrument (Malvern Panalytical).
Western blotting. […] Protein concentration was determined using the Micro BCA Protein Assay Kit (23235, Thermo Fisher Scientific) according to the manufacturer's protocol. […]
Background: In western blotting, separated proteins are transferred to a membrane and probed.

Assay [1] deals with OVCAR-5 ovarian cancer model. Description: MN quantification in tumor nodules of OVCAR-5 intraperitoneal model after topotecan. Particulars: topotecan 7.5 mg/kg intraperitoneally, single dose, euthanized 48 hours later; vs vehicle control. In kind it is in vivo, mouse. The procedure:
In vivo experiments. For the in vivo mouse experiments, female athymic (NCr-nude) mice were purchased from Taconic Biosciences. Mice were cared for in accordance with the American Association for Assessment and Accreditation of Laboratory Animal Care and the U.S. Public Health Service policy on Humane Care and Use of Laboratory Animals. All studies and experiments that were performed were supervised and approved by the MD Anderson Institutional Animal Care and Use Committee. Mice were 10 to 15 weeks old at the time of tumor intraperitoneal cell injections. OVCAR-5 luciferase—labeled cells (1×10^6) were injected intraperitoneally into each mouse. […]
Human tumor samples and MN quantification. […] For MN identification and quantification, the Vectra Polaris platform (PerkinElmer) was used, and inForm software (PerkinElmer) was used to systematically count MN. After tissue segmentation, a number of nuclei in views were calculated by the cell segmentation process, and MN was defined as over 0.85 roundness and less than approximately 3 μm size (95 pixels in 96 dpi images), as shown in FIG. 3D.
To validate these findings in vivo, the OVCAR-5 ovarian cancer model, which represents disseminated peritoneal disease, was used. […] To calculate the number of MN, multiple IF images of tumor slides were taken, and MN were systematically counted by the Vectra—inForm Image Analysis System (PerkinElmer) (FIG. 3D).

In the case of `CC[C@@]1(O)C(=O)OCc2c1cc1n(c2=O)Cc2cc3c(CN(C)C)c(O)ccc3nc2-1` [topotecan], the “population of exosomes containing nuclear proteins” value in the assay with ovarian cancer cells was “increased”. For the same compound, in assay [1], the “MN-positive cell percentages in tumor” value is “trend toward an increased”.
